“And” between values parts separate entries of the source, which are not always exact repeats. Identical values can stand only once.
target: Nav 1.7 (Homo sapiens (Human), UniProt Q15858); assay: Nav 1.7 IWQ in vitro assay (IonWorks Quattro population patch-clamp); assay type: cell-based; conditions: 293 cells stably transfected with Nav 1.7; first part of table; read-out: Nav 1.7 IWQ IC50
Procedure: Nav 1.7 or Nav 1.5 IWQ In Vitro Assay
293 Cells stably transfected with either Nav 1.7 or Nav 1.5 were recorded in population patch-clamp mode with the IonWorks® Quattro automated electrophysiology system in accordance with the manufacturer's specifications (Molecular Devices, LLC, Sunnyvale, Calif.). Sodium channel currents were measured in response to a train of depolarizations that induced successively greater inactivation.
Cells were then left unclamped for a period of 3 to 8 minutes while a single concentration of test compound was added. Cells were then reclamped and put through the same voltage protocol. Current at the end of the 26th pulse to −20 mV was subtracted from the peak current evoked by the 26th pulse to −20 mV to correct for leak current. Percent block was calculated for each concentration in duplicate, and IC50 curves were fitted to percent block as a function of concentration.

Sequence of Nav 1.7 (Q15858 whole entry): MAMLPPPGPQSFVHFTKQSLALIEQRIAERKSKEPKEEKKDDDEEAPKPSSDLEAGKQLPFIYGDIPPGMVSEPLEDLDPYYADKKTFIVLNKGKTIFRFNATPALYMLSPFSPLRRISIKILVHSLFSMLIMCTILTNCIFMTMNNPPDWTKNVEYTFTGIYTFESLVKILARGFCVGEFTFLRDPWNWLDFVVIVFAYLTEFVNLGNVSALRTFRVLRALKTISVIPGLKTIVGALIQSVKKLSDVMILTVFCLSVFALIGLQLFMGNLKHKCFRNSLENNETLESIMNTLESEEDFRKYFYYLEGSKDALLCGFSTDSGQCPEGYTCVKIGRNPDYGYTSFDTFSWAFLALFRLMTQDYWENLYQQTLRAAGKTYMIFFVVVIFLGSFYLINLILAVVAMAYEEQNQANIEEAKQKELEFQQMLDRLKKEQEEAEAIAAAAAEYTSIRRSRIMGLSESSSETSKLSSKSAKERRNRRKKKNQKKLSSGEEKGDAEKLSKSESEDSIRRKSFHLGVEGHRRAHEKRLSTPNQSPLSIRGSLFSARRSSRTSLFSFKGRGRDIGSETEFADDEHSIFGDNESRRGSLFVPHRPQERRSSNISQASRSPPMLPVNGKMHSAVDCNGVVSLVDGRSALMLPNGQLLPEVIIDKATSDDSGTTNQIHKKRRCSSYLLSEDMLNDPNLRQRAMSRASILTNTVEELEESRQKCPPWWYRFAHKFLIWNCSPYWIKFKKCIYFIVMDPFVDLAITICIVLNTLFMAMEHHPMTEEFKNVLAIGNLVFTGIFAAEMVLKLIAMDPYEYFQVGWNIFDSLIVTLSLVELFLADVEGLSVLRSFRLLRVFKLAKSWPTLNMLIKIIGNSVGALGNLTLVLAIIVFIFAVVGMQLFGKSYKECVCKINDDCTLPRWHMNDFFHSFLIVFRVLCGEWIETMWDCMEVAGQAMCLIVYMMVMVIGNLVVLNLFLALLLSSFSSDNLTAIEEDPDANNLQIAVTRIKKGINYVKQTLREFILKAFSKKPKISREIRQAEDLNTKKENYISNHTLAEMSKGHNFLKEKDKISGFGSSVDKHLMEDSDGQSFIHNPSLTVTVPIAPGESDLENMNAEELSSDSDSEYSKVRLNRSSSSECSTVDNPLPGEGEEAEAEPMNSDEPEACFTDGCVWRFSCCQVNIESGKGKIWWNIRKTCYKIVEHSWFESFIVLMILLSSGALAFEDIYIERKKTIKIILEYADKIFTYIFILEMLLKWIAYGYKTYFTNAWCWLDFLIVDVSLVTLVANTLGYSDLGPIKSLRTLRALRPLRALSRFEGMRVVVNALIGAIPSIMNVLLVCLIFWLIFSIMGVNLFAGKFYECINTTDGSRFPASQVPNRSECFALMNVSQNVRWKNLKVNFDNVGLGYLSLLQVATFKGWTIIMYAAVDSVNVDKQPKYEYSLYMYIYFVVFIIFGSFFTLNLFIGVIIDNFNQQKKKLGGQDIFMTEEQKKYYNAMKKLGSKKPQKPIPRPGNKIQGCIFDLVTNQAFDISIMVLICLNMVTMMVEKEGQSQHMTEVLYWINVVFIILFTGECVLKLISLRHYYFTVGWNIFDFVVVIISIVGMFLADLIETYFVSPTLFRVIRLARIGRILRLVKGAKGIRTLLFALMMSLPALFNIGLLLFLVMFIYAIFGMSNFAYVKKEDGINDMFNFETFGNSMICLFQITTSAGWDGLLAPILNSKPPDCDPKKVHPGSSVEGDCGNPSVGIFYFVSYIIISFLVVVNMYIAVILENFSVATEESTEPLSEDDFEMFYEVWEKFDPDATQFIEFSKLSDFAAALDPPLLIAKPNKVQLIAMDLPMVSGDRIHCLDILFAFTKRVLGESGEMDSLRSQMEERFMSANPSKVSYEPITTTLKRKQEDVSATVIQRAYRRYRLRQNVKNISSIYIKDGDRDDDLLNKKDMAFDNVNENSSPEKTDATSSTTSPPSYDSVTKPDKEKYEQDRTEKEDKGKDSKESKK

Row | SMILES | IC50
1 | O=S(=O)(Nc1ncns1)c1ccc2c(-c3ccc(C(F)(F)F)cc3Cl)nccc2c1 [Example 56, 1-(2-CHLORO-4-(TRIFLUOROMETHYL)PHENYL)-N-(1,2,4-THIADIAZOL-5-YL)ISOQUINOLINE-6-SULFONAMIDE] | 0.06 µM
2 | O=S(=O)(Nc1nccs1)c1ccc2c(-c3ccc(C(F)(F)F)cc3C3=CCNCC3)nccc2c1 [Example 70, 1-(2-(1,2,3,6-TETRAHYDROPYRIDIN-4-YL)-4-(TRIFLUOROMETHYL)PHENYL)-N-(THIAZOL-2-YL)ISOQUINOLINE-6-SULFONAMIDE] | 0.015 µM
3 | CN1CC=C(c2cc(C(F)(F)F)ccc2-c2nccc3cc(S(=O)(=O)Nc4nccs4)ccc23)CC1 [Example 72, 1-(2-(1-METHYL-1,2,3,6-TETRAHYDROPYRIDIN-4-YL)-4-(TRIFLUOROMETHYL)PHENYL)-N-(THIAZOL-2-YL)ISOQUINOLINE-6-SULFONAMIDE] | 0.06 µM
4 | O=S(=O)(Nc1ncns1)c1ccc2c(N3CCOCC3)cccc2c1 [Example 13] | 3.56 µM
5 | O=S(=O)(Nc1ccncn1)c1ccc2c(-c3ccc(C(F)(F)F)cc3C3=CCNCC3)nccc2c1 [Example 69, N-(PYRIMIDIN-4-YL)-1-(2-(1,2,3,6-TETRAHYDROPYRIDIN-4-YL)-4-(TRIFLUOROMETHYL)PHENYL)ISOQUINOLINE-6-SULFONAMIDE 2,2,2-TRIFLUOROACETATE] | 0.06 µM
6 | Cc1cc(Cl)ccc1-c1nccc2cc(S(=O)(=O)Nc3ncns3)ccc12 [Example 62] | 0.09 µM
7 | O=S(=O)(Nc1ncns1)c1ccc2c(-c3ccncc3)cccc2c1 [Example 7] | 7.76 µM
8 | CN1CC=C(c2cc(C(F)(F)F)ccc2-c2nccc3cc(S(=O)(=O)Nc4ccncn4)ccc23)CC1 [Example 68, 1-(2-(1-METHYL-1,2,3,6-TETRAHYDROPYRIDIN-4-YL)-4-(TRIFLUOROMETHYL)PHENYL)-N-(PYRIMIDIN-4-YL)ISOQUINOLINE-6-SULFONAMIDE] | 1.52 µM
9 | CN1CC=C(c2cc(C(F)(F)F)ccc2-c2cccc3cc(S(=O)(=O)Nc4nccs4)ccc23)CC1 [Example 78] | 0.09 µM
10 | CN1CC(n2nccc2-c2cc(C(F)(F)F)ccc2-c2cccc3cc(S(=O)(=O)Nc4nccs4)ccc23)C1 [Example 82] | 0.07 µM

same assay, conditions: 293 cells stably transfected with Nav 1.7; second part of table; read-out: Nav1.7 IWQ IC50 IP

Row | IC50 | SMILES
11 | > 10 µM | Cc1cc2c(cnn2C)cc1-c1nccc2cc(S(=O)(=O)Nc3ccncn3)ccc12 [Example 308]
12 | > 10 µM | Cn1cc(CCOc2nccc3cc(S(=O)(=O)Nc4ccncn4)ccc23)cn1 [Example 305, 1-(2-(1-METHYL-1H-PYRAZOL-4-YL)ETHOXY)-N-(PYRIMIDIN-4-YL)ISOQUINOLINE-6-SULFONAMIDE]

The next lines start with the compound.

Row | SMILES | IC50
13 | O=S(=O)(Nc1ccncn1)c1ccc2c(OCc3cc4n(n3)CCCO4)nccc2c1 [Example 297, 1-((6,7-DIHYDRO-5H-PYRAZOLO[5,1-B][1,3]OXAZIN-2-YL)METHOXY)-N-(PYRIMIDIN-4-YL)ISOQUINOLINE-6-SULFONAMIDE] | > 10 µM
14 | COc1cc(C(F)(F)F)ccc1-c1nccc2cc(S(=O)(=O)Nc3ccncn3)cnc12 [Example 292, 8-(2-METHOXY-4-(TRIFLUOROMETHYL)PHENYL)-N-(PYRIMIDIN-4-YL)-1,7-NAPHTHYRIDINE-3-SULFONAMIDE] | 3.94 µM
15 | O=S(=O)(Nc1ccncn1)c1ccc2c(OCc3ccc(N4CCOCC4)cc3)nccc2c1 [Example 304, 1-((4-MORPHOLINOBENZYL)OXY)-N-(PYRIMIDIN-4-YL)ISOQUINOLINE-6-SULFONAMIDE] | > 10 µM
16 | COc1cc(C(F)(F)F)ccc1-c1nccc2cc(S(=O)(=O)Nc3cnccn3)ccc12 [Example 186, 1-(2-METHOXY-4-(TRIFLUOROMETHYL)PHENYL)-N-(PYRAZIN-2-YL)ISOQUINOLINE-6-SULFONAMIDE] | 2.34 µM and 0.37 µM
17 | COc1c(F)cccc1-c1nccc2cc(S(=O)(=O)Nc3ccncn3)ccc12 [Example 157, 1-(3-FLUORO-2-METHOXYPHENYL)-N-(PYRIMIDIN-4-YL)ISOQUINOLINE-6-SULFONAMIDE] | 6.39 µM
18 | O=S(=O)(Nc1ccncn1)c1ccc2c(OCCn3cccc3)nccc2c1 [Example 303, 1-(2-(1H-PYRROL-1-YL)ETHOXY)-N-(PYRIMIDIN-4-YL)ISOQUINOLINE-6-SULFONAMIDE] | > 10 µM
19 | Cc1cccc(CCCOc2nccc3cc(S(=O)(=O)Nc4ccncn4)ccc23)n1 [Example 300, 1-(3-(6-METHYLPYRIDIN-2-YL)PROPOXY)-N-(PYRIMIDIN-4-YL)ISOQUINOLINE-6-SULFONAMIDE] | > 10 µM
20 | Cc1nn(-c2ccccc2)nc1COc1nccc2cc(S(=O)(=O)Nc3ccncn3)ccc12 [Example 138, 1-((5-METHYL-2-PHENYL-2H-1,2,3-TRIAZOL-4-YL)METHOXY)-N-(PYRIMIDIN-4-YL)ISOQUINOLINE-6-SULFONAMIDE] | 3.96 µM
21 | O=S(=O)(Nc1ccncn1)c1ccc2c(OCc3cccnc3)nccc2c1 [Example 128, 1-(PYRIDIN-3-YLMETHOXY)-N-(PYRIMIDIN-4-YL)ISOQUINOLINE-6-SULFONAMIDE] | 3.96 µM
22 | COc1ncccc1-c1nccc2cc(S(=O)(=O)Nc3ccncn3)ccc12 [Example 144, 1-(2-METHOXYPYRIDIN-3-YL)-N-(PYRIMIDIN-4-YL)ISOQUINOLINE-6-SULFONAMIDE] | 6.73 µM
23 | O=S(=O)(Nc1ccncn1)c1ccc2c(-c3cccc4ccsc34)nccc2c1 [Example 162, 1-(BENZO[B]THIOPHEN-7-YL)-N-(PYRIMIDIN-4-YL)ISOQUINOLINE-6-SULFONAMIDE] | 4.12 µM

same assay, conditions: at […]

Row | Nav1.7 Single Point Data IWQ (at […]) (%) | SMILES
24 | 27.5% | COc1cc(-c2ccncc2)ccc1-c1nccc2cc(S(=O)(=O)Nc3ccncn3)ccc12 [Example 451, 1-(2-METHOXY-4-(PYRIDIN-4-YL)PHENYL)-N-(PYRIMIDIN-4-YL)ISOQUINOLINE-6-SULFONAMIDE]
25 | 45% | Cc1cc2c(cnn2C)cc1-c1nccc2cc(S(=O)(=O)Nc3ccncn3)ccc12 [Example 308]
26 | 20.2% | CN1CCN(Cc2cccc(-c3nccc4cc(S(=O)(=O)Nc5ccncn5)ccc34)c2)CC1 [Example 431, 1-(3-((4-METHYLPIPERAZIN-1-YL)METHYL)PHENYL)-N-(PYRIMIDIN-4-YL)ISOQUINOLINE-6-SULFONAMIDE]
27 | 24.7% | COc1cc(C(F)(F)F)ccc1-c1nccc2cc(S(=O)(=O)Nc3cc(C(F)(F)F)ncn3)ccc12 [Example 496, 1-(2-METHOXY-4-(TRIFLUOROMETHYL)PHENYL)-N-(6-(TRIFLUOROMETHYL)PYRIMIDIN-4-YL)ISOQUINOLINE-6-SULFONAMIDE]
28 | 20.6% | Cc1cnc(OC[C@@H]2CCOC2)c(-c2nccc3cc(S(=O)(=O)Nc4nccs4)ccc23)c1 [Example 387, (R)-1-(5-METHYL-2-((TETRAHYDROFURAN-3-YL)METHOXY)PYRIDIN-3-YL)-N-(THIAZOL-2-YL)ISOQUINOLINE-6-SULFONAMIDE]
29 | 41.1% | COc1cc(C(=O)CCCCO)ccc1-c1nccc2cc(S(=O)(=O)Nc3ccncn3)ccc12 [Example 463, 1-(4-(5-HYDROXYPENTANOYL)-2-METHOXYPHENYL)-N-(PYRIMIDIN-4-YL)ISOQUINOLINE-6-SULFONAMIDE]
30 | 24.7% | COc1cc(-c2ncc(Cl)s2)ccc1-c1nccc2cc(S(=O)(=O)Nc3ccncn3)ccc12 [Example 458, 1-(4-(5-CHLOROTHIAZOL-2-YL)-2-METHOXYPHENYL)-N-(PYRIMIDIN-4-YL)ISOQUINOLINE-6-SULFONAMIDE]
31 | 19.8% | COc1cc(C(F)(F)F)ccc1-c1nccc2cc(S(=O)(=O)n3ccc(N)n3)ccc12 [Example 390, 1-((1-(2-METHOXY-4-(TRIFLUOROMETHYL)PHENYL)ISOQUINOLIN-6-YL) SULFONYL)-1H-PYRAZOL-3-AMINE]
32 | 21.2% | Cc1cc(S(=O)(=O)N(C)C)ccc1-c1nccc2cc(S(=O)(=O)Nc3ccncn3)ccc12 [Example 433]
33 | <20% | COc1cc(C(F)F)c(F)cc1-c1ncnc2cc(S(=O)(=O)NC3=NCCS3)ccc12 [Example 519, 4-(4-(DIFLUOROMETHYL)-5-FLUORO-2-METHOXYPHENYL)-N-(4,5-DIHYDROTHIAZOL-2-YL)QUINAZOLINE-7-SULFONAMIDE]
34 | 24% | Cn1cc(CCOc2nccc3cc(S(=O)(=O)Nc4ccncn4)ccc23)cn1 [Example 305, 1-(2-(1-METHYL-1H-PYRAZOL-4-YL)ETHOXY)-N-(PYRIMIDIN-4-YL)ISOQUINOLINE-6-SULFONAMIDE]
35 | 20.3% | O=S(=O)(Nc1ncns1)c1ccc2c(N3CCCC3c3ccncc3)ncnc2c1 (stereo not shown) [Example 539, 4-(2-(PYRIDIN-4-YL)PYRROLIDIN-1-YL)-N-(1,2,4-THIADIAZOL-5-YL)QUINAZOLINE-7-SULFONAMIDE]

Continued, compound first:

Row | SMILES | Nav1.7 Single Point Data IWQ (at […]) (%)
36 | O=S(=O)(Nc1ccncn1)c1ccc2c(OCc3cc4n(n3)CCCO4)nccc2c1 [Example 297, 1-((6,7-DIHYDRO-5H-PYRAZOLO[5,1-B][1,3]OXAZIN-2-YL)METHOXY)-N-(PYRIMIDIN-4-YL)ISOQUINOLINE-6-SULFONAMIDE] | 38%
37 | Cc1cnc(OCCN(C)C)c(-c2nccc3cc(S(=O)(=O)Nc4ccncn4)ccc23)c1 [Example 382, 1-(2-(2-(DIMETHYLAMINO)ETHOXY)-5-METHYLPYRIDIN-3-YL)-N-(PYRIMIDIN-4-YL)ISOQUINOLINE-6-SULFONAMIDE] | 27.8%
38 | O=S(=O)(Nc1ccncn1)c1ccc2c(OCc3ccc(N4CCOCC4)cc3)nccc2c1 [Example 304, 1-((4-MORPHOLINOBENZYL)OXY)-N-(PYRIMIDIN-4-YL)ISOQUINOLINE-6-SULFONAMIDE] | 32%
39 | CCC1CCCCN1c1ncnc2cc(S(=O)(=O)Nc3nccs3)ccc12 (stereo not shown) [Example 535, 4-(2-ETHYLPIPERIDIN-1-YL)-N-(THIAZOL-2-YL)QUINAZOLINE-7-SULFONAMIDE] | 26%
40 | O=S(=O)(Nc1ccncn1)c1ccc2c(OCCn3cccc3)nccc2c1 [Example 303, 1-(2-(1H-PYRROL-1-YL)ETHOXY)-N-(PYRIMIDIN-4-YL)ISOQUINOLINE-6-SULFONAMIDE] | 40%
41 | Cc1cccc(CCCOc2nccc3cc(S(=O)(=O)Nc4ccncn4)ccc23)n1 [Example 300, 1-(3-(6-METHYLPYRIDIN-2-YL)PROPOXY)-N-(PYRIMIDIN-4-YL)ISOQUINOLINE-6-SULFONAMIDE] | 25%
42 | Cc1cnc(OCC2CCC2)c(-c2nccc3cc(S(=O)(=O)Nc4nccs4)ccc23)c1 [Example 381, 1-(2-(CYCLOBUTYLMETHOXY)-5-METHYLPYRIDIN-3-YL)-N-(THIAZOL-2-YL)ISOQUINOLINE-6-SULFONAMIDE] | 26.5%
43 | Cc1cnc(OCc2ccccc2)c(-c2nccc3cc(S(=O)(=O)Nc4nccs4)ccc23)c1 [Example 380, 1-(2-(BENZYLOXY)-5-METHYLPYRIDIN-3-YL)-N-(THIAZOL-2-YL)ISOQUINOLINE-6-SULFONAMIDE] | 40%

From patent US9012443B2 (Amgen Inc., priority 2011, dated 2015)
